Laboratory results published in patent US5733719A, “Method of making an assay compound” (priority 1995, dated 1998).
Numbered stars: 1 amine (or outer) side, 2 acyl side, 3 side chain; on linkers, the order of the positions; unused ones are H or OH. Bridge positions count the residues as written; N and C are the ends. Peptide text beside a SMILES is read from it. I, II: the chains in the order shown. Rhodamine110 = O=C1OC2(c3ccc(N[*:1])cc3Oc3cc(N[*:2])ccc32)c2ccccc21

Test system: enzyme
Assay: Effect of dithioerythritol (DTE) on substrate sensitivity
Conditions: dithioerythritol (DTE) at 1 mM
Description: Modulators are components used to […] the sensitivity of the enzyme for the leaving group. The modulators speed up or slow down the activity of an enzyme by changing the active site. […] Preferred modulators for particular enzymes are included in Table 1.

effect of DTE on sensitivity	Structure (SMILES)
decreases the sensitivity	CC(C)[C@H](N)C(=O)N[C@@H](CCCCN)C(=O)N[C@H](C(=O)N[C@@H](CCCCN)C(=O)Nc1ccc2c(c1)Oc1cc(NC(=O)[C@H](CCCCN)NC(=O)[C@@H](NC(=O)[C@H](CCCCN)NC(=O)[C@@H](N)C(C)C)C(C)C)ccc1C21OC(=O)c2ccccc21)C(C)C [Val-Lys-Val-Lys, (H--L--Val--Lys--Val--Lys)2 Rho 110-6TFA] (I: H-VKVK / II: H-VKVK; linker I:C-II:C via Rhodamine110)
does not change the sensitivity	C[C@H](N)C(=O)NCC(=O)Nc1ccc2c(c1)Oc1cc(NC(=O)CNC(=O)[C@H](C)N)ccc1C21OC(=O)c2ccccc21 [Ala-Gly]
decreases the sensitivity	NC(=O)CC[C@H](N)C(=O)N[C@@H](CO)C(=O)Nc1ccc2c(c1)Oc1cc(NC(=O)[C@H](CO)NC(=O)[C@@H](N)CCC(N)=O)ccc1C21OC(=O)c2ccccc21 (relative stereo) [GLN-SER*]
decreases the sensitivity	C[C@H](N)C(=O)N[C@@H](C)C(=O)N[C@@H](C)C(=O)N[C@@H](C)C(=O)Nc1ccc2c(c1)Oc1cc(NC(=O)[C@H](C)NC(=O)[C@H](C)NC(=O)[C@H](C)NC(=O)[C@H](C)N)ccc1C21OC(=O)c2ccccc21 [Ala-Ala-Ala-Ala, (H--L Ala--Ala--Ala--Ala)2 Rho 110-2TFA] (I: H-AAAA / II: H-AAAA; linker I:C-II:C via Rhodamine110)
